Test results from ChEMBL document CHEMBL1145637, “Dual binding site inhibitors of B-RAF kinase” (Bioorg Med Chem Lett, 2008).
Converted amounts (≈) assume the structure as drawn. The source made the active and inactive calls. The calls are words filed in the database; no cut-off is given here.

Key:
[1] = Inhibition of ERK phosphorylation
[2] = Metabolic stability in human liver microsome after 30 mins; type: ADME; conditions: liver microsomes, read-out: Stability
[3] = (§1) Metabolic stability in rat liver microsome after 30 mins; type: ADME, microsomes; conditions: liver microsomes, read-out: Stability
[4] = biological target: RAF proto-oncogene serine/threonine-protein kinase (Homo sapiens, UniProt P04049); experiment: Inhibition of C-RAF kinase
RAF proto-oncogene serine/threonine-protein kinase, sequence (P04049 whole entry): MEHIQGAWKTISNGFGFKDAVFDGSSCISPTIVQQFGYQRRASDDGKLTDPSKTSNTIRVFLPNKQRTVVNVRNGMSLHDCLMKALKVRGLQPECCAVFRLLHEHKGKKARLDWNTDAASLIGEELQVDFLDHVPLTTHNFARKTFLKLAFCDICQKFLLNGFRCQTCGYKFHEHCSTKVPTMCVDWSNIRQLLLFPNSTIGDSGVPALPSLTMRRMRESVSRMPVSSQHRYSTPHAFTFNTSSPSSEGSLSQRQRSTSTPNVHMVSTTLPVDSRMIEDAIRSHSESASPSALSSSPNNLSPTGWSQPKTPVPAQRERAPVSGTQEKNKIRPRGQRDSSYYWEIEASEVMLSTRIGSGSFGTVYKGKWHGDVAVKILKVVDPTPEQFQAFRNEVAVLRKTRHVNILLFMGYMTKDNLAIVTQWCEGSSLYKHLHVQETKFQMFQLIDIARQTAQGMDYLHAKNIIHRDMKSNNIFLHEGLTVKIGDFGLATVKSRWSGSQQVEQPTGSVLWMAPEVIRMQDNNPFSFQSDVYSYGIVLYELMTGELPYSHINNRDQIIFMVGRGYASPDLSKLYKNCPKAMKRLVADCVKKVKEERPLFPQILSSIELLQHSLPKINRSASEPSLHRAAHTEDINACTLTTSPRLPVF

[5] = Aqueous solubility in NaH2PO4 at pH 7.4 after 24 hrs by HPLC; type: physicochemical; conditions: for solubility at 24 h: NaH2PO4 buffer, pH 7.4; for Activity: buffer, pH 7.4, 24 h
[6] = biological target: Serine/threonine-protein kinase B-raf (Homo sapiens, UniProt P15056)
Serine/threonine-protein kinase B-raf (Homo sapiens, UniProt P15056), sequence (P15056 whole entry): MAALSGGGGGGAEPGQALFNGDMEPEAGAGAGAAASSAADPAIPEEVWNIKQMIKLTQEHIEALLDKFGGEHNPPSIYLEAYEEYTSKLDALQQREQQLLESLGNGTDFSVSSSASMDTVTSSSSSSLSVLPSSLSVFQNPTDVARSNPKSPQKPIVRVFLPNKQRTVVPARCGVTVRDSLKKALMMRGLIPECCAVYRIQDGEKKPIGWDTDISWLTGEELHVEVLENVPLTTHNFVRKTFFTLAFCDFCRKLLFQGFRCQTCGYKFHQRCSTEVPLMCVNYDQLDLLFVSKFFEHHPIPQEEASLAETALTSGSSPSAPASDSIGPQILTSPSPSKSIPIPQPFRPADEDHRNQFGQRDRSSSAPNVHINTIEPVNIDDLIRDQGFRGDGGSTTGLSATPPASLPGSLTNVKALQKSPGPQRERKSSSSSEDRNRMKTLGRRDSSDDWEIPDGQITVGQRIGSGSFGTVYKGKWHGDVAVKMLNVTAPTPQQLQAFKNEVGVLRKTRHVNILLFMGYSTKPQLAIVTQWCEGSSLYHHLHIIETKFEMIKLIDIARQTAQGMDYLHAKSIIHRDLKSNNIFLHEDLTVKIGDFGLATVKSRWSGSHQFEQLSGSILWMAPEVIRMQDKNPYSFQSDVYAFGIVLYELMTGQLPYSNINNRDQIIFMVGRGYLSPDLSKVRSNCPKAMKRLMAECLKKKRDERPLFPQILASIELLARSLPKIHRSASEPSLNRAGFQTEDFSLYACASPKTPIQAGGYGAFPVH
Description: Inhibition of B-RAF kinase

[7] = biological target: Serine/threonine-protein kinase B-raf (Homo sapiens, UniProt P15056, V600E)
Serine/threonine-protein kinase B-raf (Homo sapiens, UniProt P15056, V600E), sequence (P15056 2-766 V600E limits assumed): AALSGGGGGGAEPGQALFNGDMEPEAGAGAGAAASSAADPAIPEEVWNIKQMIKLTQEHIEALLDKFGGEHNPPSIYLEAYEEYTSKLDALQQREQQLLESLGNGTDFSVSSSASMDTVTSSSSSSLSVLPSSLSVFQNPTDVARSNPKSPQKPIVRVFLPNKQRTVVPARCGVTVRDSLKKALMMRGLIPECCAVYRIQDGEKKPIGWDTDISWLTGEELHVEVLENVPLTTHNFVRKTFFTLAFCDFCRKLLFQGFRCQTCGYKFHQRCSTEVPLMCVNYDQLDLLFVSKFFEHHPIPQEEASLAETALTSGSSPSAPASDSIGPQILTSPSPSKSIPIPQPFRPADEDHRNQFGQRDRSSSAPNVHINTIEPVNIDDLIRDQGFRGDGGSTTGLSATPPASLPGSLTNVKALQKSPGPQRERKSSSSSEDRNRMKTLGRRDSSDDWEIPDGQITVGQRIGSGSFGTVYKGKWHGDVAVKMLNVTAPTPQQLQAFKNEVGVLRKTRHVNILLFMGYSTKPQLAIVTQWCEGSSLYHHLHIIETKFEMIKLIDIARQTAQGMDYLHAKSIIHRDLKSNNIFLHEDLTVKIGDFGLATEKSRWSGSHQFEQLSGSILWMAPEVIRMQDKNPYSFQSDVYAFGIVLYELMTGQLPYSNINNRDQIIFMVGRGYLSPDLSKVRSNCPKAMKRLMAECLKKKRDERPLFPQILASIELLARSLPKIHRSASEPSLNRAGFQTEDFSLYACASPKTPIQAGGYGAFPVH
Description: Inhibition of B-RAF V600E mutant

Liver microsomes = experiment: as §1; type: ADME; conditions: microsomes, 0.5 h

Row | Activity [5] | Activity [1] | Activity (Liver microsomes) | Structure (SMILES) | IC50 [1] [nM] | remaining at 0.5 h [2] [%] | remaining at 0.5 h [3] [%] | IC50 [4] [nM] | solubility at 24 h [5] [µM] | IC50 [6] [nM] | IC50 [7] [nM]
1 |  |  |  | O=C(Cc1ccc(Cl)cc1)Nc1cccc(-c2nc(C3CC3)[nH]c2-c2ccnc(NCCN3CCNC3=O)n2)c1 | 3000 | 38 | 60 | 1 | 35 (≈ 19.5 µg/mL) | 7 | 2
2 | Not Active |  |  | O=C1NCCN1CCNc1nccc(-c2nc(C3CC3)[nH]c2-c2cccc(NS(=O)(=O)Cc3ccc(Cl)c(Cl)c3)c2)n1 |  | 85 | 52 | 41 |  | 343 | 141
3 |  |  |  | O=C(Cc1ccc(Cl)cc1)Nc1cccc(-c2nc(C(F)(F)F)[nH]c2-c2ccnc(NCCN3CCNC3=O)n2)c1 | 30000 | 73 | 34 | 20 | 7.5 (≈ 4.39 µg/mL) | 54 | 40
4 |  |  | Not Active | CNC(=O)c1cc(Oc2ccc(NC(=O)Nc3ccc(Cl)c(C(F)(F)F)c3)cc2)ccn1 [SORAFENIB] | 8300 | 80 |  |  | 6.3 (≈ 2.93 µg/mL) |  | 
5 |  |  |  | NC(=O)c1cccc(Nc2nccc(-c3[nH]c(C4CC4)nc3-c3cccc(NC(=O)Nc4ccc(Cl)c(C(F)(F)F)c4)c3)n2)c1 | 2100 |  |  | 31 | 0.4 (≈ 0.253 µg/mL) | 35 | 61
6 |  | inactive |  | O=C1NCCN1CCNc1nccc(-c2[nH]c(C3CC3)nc2-c2cccc(NS(=O)(=O)Cc3ccc(Cl)c(Cl)c3)c2)n1 |  |  |  |  |  |  | 
7 | Not Active |  |  | NC(=O)c1cccc(Nc2nccc(-c3nc(C4CC4)[nH]c3-c3cccc(NS(=O)(=O)Cc4ccc(Cl)c(Cl)c4)c3)n2)c1 |  | 76 | 44 | 49 |  | 887 | 274
8 |  |  |  | O=C(Nc1cccc(-c2nc(C3CC3)[nH]c2-c2ccnc(NCCN3CCNC3=O)n2)c1)Nc1ccc(Cl)c(C(F)(F)F)c1 | 2300 | 50 | 44 | 14 | 6.2 (≈ 3.88 µg/mL) | 66 | 22
9 |  |  |  | CC(C)(C)NC(=O)NCCNc1nccc(-c2[nH]c(C3CC3)nc2-c2ccccc2Cl)n1 |  |  |  |  |  | 83 | 
10 |  |  |  | O=C1NCCN1CCNc1nccc(-c2nc(C3CC3)[nH]c2-c2cc(Cl)ccc2Cl)n1 |  |  |  |  |  | 10 | 
11 |  |  |  | CNc1nccc(-c2[nH]c(C(F)(F)F)nc2-c2cccc(NC(=O)Cc3ccc(Cl)cc3)c2)n1 | 12600 | 74 | 81 | 2 | 0.48 (≈ 0.234 µg/mL) | 30 | 18
12 |  |  |  | CNc1nccc(-c2[nH]c(C3CC3)nc2-c2cccc(NC(=O)Cc3ccc(Cl)cc3)c2)n1 | 5100 |  |  | 1 | 0.4 (≈ 0.184 µg/mL) | 9 | 3
13 |  | inactive |  | NC(=O)c1cccc(Nc2nccc(-c3[nH]c(C4CC4)nc3-c3cccc(NS(=O)(=O)Cc4ccc(Cl)c(Cl)c4)c3)n2)c1 |  |  |  |  |  |  | 
14 |  |  |  | NC(=O)c1cccc(Nc2nccc(-c3[nH]c(C(F)(F)F)nc3-c3cccc(NC(=O)Cc4ccc(Cl)cc4)c3)n2)c1 | 30000 | 71 | 47 | 17 | 0.35 (≈ 0.207 µg/mL) | 108 | 85
15 |  |  |  | CNc1nccc(-c2[nH]c(C3CC3)nc2-c2cccc(NC(=O)Nc3ccc(Cl)c(C(F)(F)F)c3)c2)n1 | 1400 | 80 | 57 | 5 | 0.3 (≈ 0.158 µg/mL) | 21 | 16
16 |  |  |  | NC(=O)c1cccc(Nc2nccc(-c3[nH]c(C4CC4)nc3-c3cccc(NC(=O)Cc4ccc(Cl)cc4)c3)n2)c1 | 2400 | 53 | 58 | 0.5 | 0.5 (≈ 0.282 µg/mL) | 4 | 3

Row | Structure (SMILES) | Activity [5] | Activity [1] | Activity (Liver microsomes) | IC50 [1] [nM] | remaining at 0.5 h [2] [%] | remaining at 0.5 h [3] [%] | IC50 [4] [nM] | solubility at 24 h [5] [µM] | IC50 [6] [nM] | IC50 [7] [nM]
17 | CNc1nccc(-c2[nH]c(C3CC3)nc2-c2cccc(NS(=O)(=O)Cc3ccc(Cl)c(Cl)c3)c2)n1 | Not Active | inactive |  |  | 60 | 87 | 26 |  | 469 | 138
